The source made the active and inactive calls. Some results are limits rather than exact numbers.

One experiment deals with T1, X-box-binding protein 1 (Homo sapiens, UniProt P17861).
T1 sequence (P17861 whole entry): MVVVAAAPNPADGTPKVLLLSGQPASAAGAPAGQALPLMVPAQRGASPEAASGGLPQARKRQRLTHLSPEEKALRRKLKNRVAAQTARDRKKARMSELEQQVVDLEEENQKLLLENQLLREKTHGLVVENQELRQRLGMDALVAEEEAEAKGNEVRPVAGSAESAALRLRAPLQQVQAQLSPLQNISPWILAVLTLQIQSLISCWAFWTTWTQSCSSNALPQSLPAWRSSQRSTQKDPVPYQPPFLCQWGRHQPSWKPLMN
The format is functional, Cricetulus griseus.

The nature of experiment [1]: Luminescence Cell-Based Dose Retest to Confirm Inhibitors of Cancer Stem Cells. [Related pubchem assays (depositor defined):AID2717, AID2721]. It counts as functional. As to conditions: Homo sapiens.
Experiment [2] is described as follows: A Cell Based Secondary Assay To Explore Cytotoxicity of Compounds that Sensitize Mycobacterium Tuberculosis to Beta-Lactam Antibiotics. The format is functional.
Another experiment deals with T2, fMet-Leu-Phe receptor (Homo sapiens, UniProt P21462).
T2 sequence (P21462 whole entry): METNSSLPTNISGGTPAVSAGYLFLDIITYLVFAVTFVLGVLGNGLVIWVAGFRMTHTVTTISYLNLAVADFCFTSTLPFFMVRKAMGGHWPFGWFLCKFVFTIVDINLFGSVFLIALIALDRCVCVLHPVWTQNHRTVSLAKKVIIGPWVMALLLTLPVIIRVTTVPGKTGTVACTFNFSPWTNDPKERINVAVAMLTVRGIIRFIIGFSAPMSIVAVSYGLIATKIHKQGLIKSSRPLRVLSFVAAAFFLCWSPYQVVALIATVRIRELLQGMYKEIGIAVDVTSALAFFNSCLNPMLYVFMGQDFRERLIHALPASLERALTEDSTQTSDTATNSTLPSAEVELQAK
Description: formyl peptide receptor binders – dose response (AID 519). The format is functional.

In experiment [3] the target is T3, Lysosomal acid glucosylceramidase (Homo sapiens, UniProt P04062).
T3 sequence (P04062 whole entry): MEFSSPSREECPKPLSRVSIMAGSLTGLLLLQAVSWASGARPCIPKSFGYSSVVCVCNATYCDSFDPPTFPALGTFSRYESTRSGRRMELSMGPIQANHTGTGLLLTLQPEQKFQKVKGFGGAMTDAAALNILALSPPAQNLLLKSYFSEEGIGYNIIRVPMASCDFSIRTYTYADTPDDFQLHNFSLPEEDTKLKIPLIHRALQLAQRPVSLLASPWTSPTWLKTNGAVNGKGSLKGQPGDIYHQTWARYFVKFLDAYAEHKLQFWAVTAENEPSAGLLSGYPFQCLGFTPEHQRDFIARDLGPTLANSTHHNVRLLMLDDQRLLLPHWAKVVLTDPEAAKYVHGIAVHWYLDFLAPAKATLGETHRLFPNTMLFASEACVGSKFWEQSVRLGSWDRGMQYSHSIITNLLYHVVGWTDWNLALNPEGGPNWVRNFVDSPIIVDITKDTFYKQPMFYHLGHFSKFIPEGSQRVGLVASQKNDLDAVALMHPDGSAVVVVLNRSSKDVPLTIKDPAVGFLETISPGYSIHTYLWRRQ
Description: Dose response cell-based high throughput screening assay to identify enhancers of beta-glucosidase activity. [Related pubchem assays: 784 ]. The format is functional.

Experiment [4] concerns the target T4, Heat shock factor protein 1 (Mus musculus, UniProt P38532).
T4 sequence (P38532 whole entry): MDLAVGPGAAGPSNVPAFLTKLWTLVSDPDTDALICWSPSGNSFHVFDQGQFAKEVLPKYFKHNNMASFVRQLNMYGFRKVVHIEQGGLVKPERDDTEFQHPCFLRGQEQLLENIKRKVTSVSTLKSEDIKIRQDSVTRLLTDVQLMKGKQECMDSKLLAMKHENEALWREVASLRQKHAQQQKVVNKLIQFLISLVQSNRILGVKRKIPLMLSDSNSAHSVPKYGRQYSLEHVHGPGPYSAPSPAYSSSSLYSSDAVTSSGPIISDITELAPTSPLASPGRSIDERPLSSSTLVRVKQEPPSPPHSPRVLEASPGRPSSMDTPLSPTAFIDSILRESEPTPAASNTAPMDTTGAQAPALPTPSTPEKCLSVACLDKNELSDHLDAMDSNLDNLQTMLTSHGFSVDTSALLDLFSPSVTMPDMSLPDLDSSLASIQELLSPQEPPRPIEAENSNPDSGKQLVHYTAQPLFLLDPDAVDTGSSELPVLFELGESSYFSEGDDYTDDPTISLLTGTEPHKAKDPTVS
Kind of experiment: decrease of HSF1-responsive luciferase luminescence – cell-based, NIH3T3, dose retest, confirmation (AID 2382).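 Note: NIH3T3 fibroblasts with HSF1-driven luciferase reporter stressed by proteasome inhibitor MG132; luminescence from HSF1-driven luciferase expression after 8 hours of MG132 stress.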 The format is functional.

A further experiment concerns the target Ion channel NompC (Danio rerio, UniProt Q7T1G6). Description: Fluorescence counterscreen assay for TRPML3 agonists: dose response cell-based high-throughput screening assay to identify agonists of the transient receptor potential channel N1 (TRPN1). [Related pubchem assays: 1526, 1424, 1448 ]. The format is functional.
In the next experiment the target is T5, Mucolipin-3 (Homo sapiens, UniProt Q8TDD5).
T5 sequence (Q8TDD5 whole entry): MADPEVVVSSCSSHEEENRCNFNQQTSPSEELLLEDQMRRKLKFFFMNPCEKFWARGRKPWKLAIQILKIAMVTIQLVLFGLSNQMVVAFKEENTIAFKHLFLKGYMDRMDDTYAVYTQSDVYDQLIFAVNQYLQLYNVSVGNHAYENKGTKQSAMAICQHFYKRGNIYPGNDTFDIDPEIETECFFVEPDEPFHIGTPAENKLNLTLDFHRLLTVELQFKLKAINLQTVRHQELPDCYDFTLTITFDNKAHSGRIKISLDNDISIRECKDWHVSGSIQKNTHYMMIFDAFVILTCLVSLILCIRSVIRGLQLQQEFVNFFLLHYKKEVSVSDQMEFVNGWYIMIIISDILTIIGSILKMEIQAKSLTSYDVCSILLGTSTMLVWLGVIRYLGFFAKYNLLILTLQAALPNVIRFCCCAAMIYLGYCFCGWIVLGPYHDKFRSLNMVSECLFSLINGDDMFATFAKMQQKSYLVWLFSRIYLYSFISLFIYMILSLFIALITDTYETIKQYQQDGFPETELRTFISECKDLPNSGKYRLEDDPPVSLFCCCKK
Kind of experiment: Dose response cell-based high-throughput screening assay for agonists of the transient receptor potential channel ML3 (TRPML3). [Related pubchem assays: 1526, 1424, 1448 ]. It counts as functional.

Experiment [5] in a line: viability of uninfected HEp-2 cells – cell-based, HTS, cytotoxicity control for RSV inhibitor project, dose response (AID 2410). The format is functional. As to conditions: human respiratory syncytial virus.
For experiment [6], the target named is Protein-tyrosine kinase 2-beta (Homo sapiens, UniProt Q14289).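 Note: potency of inhibitors of PYK2 kinase phosphorylation of poly-GT substrate.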
Experiment [7] deals with Peroxisome proliferator-activated receptor gamma/Nuclear receptor coactivator 3 (Homo sapiens, UniProt P37231). It counts as functional.
For experiment [8], the target named is Peroxisome proliferator-activated receptor gamma/Nuclear receptor coactivator 2 (Homo sapiens, UniProt P37231). The format is functional.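 Note: agonist potency for raising coactivator recruitment to the receptor.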
The target of experiment [9] is Peroxisome proliferator-activated receptor gamma/Nuclear receptor coactivator 1 (Homo sapiens, UniProt P37231). It counts as functional.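 Note: agonist potency as compounds enhance coactivator SRC-1 recruitment to PPARgamma.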
For experiment [10], the target named is T6, Voltage-gated N-type calcium channel alpha-1B subunit/Amyloid beta A4 precursor protein-binding family A member 1 (Homo sapiens, UniProt Q00975+Q02410). It counts as protein assay.
T6 sequence (Q00975 whole entry): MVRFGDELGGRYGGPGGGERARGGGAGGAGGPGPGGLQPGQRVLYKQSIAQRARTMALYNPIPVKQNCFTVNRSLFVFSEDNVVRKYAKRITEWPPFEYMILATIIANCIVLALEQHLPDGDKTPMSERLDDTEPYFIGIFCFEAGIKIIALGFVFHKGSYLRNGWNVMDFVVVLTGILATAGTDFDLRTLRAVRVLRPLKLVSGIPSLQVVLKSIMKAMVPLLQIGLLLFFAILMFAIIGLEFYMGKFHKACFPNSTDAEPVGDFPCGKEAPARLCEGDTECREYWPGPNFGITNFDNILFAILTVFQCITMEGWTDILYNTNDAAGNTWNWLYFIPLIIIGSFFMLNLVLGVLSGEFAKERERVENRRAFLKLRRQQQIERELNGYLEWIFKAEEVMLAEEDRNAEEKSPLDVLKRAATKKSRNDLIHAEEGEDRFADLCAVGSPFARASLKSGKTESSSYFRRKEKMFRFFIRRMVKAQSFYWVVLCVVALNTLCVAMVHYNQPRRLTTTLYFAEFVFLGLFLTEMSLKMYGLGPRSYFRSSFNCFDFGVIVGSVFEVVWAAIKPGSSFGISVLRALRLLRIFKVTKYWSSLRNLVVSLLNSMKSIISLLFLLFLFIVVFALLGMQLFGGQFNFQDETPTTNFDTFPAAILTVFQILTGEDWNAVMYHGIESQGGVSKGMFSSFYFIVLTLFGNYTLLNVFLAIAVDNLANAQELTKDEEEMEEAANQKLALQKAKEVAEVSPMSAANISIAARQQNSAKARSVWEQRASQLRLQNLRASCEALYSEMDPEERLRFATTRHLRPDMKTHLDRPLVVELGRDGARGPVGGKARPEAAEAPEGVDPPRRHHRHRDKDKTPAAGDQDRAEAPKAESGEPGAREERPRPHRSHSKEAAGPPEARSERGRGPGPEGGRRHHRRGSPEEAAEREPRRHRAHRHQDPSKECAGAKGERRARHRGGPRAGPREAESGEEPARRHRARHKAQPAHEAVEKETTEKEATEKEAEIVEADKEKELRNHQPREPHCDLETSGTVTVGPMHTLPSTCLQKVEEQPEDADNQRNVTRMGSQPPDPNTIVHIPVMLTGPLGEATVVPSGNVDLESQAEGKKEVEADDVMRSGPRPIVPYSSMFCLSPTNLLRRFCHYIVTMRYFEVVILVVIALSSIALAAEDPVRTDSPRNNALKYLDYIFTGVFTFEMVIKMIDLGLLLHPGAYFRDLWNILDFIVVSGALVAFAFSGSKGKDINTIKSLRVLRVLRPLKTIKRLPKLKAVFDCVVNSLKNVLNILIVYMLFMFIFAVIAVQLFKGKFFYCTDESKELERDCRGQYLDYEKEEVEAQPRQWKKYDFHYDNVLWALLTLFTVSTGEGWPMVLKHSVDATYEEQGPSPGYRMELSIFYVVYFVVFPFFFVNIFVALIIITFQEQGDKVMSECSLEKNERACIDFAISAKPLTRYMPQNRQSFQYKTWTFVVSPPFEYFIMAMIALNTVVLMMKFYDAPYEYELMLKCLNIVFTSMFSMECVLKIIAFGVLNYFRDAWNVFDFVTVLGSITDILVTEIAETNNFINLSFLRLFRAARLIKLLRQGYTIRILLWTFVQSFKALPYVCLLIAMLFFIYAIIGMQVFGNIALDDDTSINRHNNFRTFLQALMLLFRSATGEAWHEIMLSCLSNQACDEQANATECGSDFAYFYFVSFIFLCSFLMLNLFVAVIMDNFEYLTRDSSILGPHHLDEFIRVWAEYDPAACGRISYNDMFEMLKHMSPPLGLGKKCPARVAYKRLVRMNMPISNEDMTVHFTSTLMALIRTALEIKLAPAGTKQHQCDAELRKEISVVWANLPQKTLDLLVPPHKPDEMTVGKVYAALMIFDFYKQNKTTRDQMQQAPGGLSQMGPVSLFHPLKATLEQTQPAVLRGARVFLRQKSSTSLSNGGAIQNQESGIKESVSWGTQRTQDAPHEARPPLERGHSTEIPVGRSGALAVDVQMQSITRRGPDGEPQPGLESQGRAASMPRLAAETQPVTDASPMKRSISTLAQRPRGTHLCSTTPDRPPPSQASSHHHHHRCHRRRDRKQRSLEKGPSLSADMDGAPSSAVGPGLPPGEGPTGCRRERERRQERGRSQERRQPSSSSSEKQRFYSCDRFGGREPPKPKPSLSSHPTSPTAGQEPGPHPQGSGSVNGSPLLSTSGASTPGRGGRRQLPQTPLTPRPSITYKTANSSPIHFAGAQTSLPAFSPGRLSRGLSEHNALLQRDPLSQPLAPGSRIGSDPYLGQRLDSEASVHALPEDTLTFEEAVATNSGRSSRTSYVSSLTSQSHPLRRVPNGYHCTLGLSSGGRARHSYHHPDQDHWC
T6 sequence (Q02410 whole entry): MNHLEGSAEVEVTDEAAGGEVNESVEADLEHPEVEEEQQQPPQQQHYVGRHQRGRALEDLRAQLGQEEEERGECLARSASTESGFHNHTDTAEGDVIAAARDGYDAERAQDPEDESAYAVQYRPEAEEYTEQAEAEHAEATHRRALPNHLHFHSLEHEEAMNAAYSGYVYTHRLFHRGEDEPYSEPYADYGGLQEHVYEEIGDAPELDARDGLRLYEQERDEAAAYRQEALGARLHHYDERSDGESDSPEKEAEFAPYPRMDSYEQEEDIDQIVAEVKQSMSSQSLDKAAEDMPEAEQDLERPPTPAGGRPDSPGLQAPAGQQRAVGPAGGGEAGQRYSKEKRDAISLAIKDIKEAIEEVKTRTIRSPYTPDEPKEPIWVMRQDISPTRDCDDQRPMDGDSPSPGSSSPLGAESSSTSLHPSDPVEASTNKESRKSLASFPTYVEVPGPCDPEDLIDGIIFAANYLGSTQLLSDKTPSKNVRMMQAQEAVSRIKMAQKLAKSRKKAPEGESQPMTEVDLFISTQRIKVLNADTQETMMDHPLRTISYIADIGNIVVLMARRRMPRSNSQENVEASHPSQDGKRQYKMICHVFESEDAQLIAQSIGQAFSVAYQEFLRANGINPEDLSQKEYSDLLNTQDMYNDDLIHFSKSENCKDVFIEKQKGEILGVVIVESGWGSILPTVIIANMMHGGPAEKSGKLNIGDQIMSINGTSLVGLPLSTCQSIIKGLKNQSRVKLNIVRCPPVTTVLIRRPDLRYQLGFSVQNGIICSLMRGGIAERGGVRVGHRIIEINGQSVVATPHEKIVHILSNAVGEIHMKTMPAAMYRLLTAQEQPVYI
In experiment [11] the target is T7, Tyrosine-protein phosphatase non-receptor type 7 (Homo sapiens, UniProt P35236).
T7 sequence (P35236 whole entry): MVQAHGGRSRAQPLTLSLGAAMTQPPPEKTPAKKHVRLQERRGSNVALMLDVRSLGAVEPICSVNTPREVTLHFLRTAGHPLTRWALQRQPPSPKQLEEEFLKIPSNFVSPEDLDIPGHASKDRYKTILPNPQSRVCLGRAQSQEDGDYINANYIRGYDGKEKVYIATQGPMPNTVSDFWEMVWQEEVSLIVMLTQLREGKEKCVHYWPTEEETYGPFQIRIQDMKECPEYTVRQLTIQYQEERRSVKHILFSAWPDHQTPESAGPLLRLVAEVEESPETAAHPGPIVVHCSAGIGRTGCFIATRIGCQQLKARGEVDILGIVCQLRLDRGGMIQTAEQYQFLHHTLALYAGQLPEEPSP
Description: HePTP tyrosine phosphatase activity blockers – biochemical, absorbance, leukemia target, primary screen (AID 521). The format is functional.

Experiment [12] has as its target T6, Voltage-gated N-type calcium channel alpha-1B subunit/Amyloid beta A4 precursor protein-binding family A member 1. The format is protein assay. The source holds these as a separate data set.
The target of another experiment is Cytochrome P450 2C9 (Homo sapiens, UniProt P11712).
The next experiment has as its target Cytochrome P450 3A4 (Homo sapiens, UniProt P08684).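 Note: CYP3A4 tested as one member of a cytochrome P450 panel screen.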
Another experiment addresses T8, Bcl-2-like protein 10 (Homo sapiens, UniProt Q9HD36).
T8 sequence (Q9HD36 whole entry): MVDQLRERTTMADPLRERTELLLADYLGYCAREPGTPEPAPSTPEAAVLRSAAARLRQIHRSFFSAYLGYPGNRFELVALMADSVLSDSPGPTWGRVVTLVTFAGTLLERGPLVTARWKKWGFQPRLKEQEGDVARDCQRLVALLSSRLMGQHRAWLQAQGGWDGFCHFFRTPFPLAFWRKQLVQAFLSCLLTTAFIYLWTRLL
Description: Bcl-B/TR3 peptide binding disruption – biochemical, fluorescence polarization, FITC-TR3 peptide, selectivity assay for Bfl-1 inhibitor project, primary screen (AID 748).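 Note: fluorescence polarization from a fluorescein-labelled TR3 peptide binding purified Bcl-B.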

The next experiment relates to HeLa. Kind of experiment: viability loss in HeLa cells – cell-based, 24 h, cherry-picked samples, cytotoxicity control, dose response (AID 504726).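 Note: potency for cytotoxicity as loss of luminescence signal.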 The format is functional. As to conditions: Homo sapiens.
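Throughout, for Absolute IC50 (XBP1): confirmatory dose-response counter-screen serving a CHOP assay.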

Ion channel NompC, sequence (Q7T1G6 whole entry): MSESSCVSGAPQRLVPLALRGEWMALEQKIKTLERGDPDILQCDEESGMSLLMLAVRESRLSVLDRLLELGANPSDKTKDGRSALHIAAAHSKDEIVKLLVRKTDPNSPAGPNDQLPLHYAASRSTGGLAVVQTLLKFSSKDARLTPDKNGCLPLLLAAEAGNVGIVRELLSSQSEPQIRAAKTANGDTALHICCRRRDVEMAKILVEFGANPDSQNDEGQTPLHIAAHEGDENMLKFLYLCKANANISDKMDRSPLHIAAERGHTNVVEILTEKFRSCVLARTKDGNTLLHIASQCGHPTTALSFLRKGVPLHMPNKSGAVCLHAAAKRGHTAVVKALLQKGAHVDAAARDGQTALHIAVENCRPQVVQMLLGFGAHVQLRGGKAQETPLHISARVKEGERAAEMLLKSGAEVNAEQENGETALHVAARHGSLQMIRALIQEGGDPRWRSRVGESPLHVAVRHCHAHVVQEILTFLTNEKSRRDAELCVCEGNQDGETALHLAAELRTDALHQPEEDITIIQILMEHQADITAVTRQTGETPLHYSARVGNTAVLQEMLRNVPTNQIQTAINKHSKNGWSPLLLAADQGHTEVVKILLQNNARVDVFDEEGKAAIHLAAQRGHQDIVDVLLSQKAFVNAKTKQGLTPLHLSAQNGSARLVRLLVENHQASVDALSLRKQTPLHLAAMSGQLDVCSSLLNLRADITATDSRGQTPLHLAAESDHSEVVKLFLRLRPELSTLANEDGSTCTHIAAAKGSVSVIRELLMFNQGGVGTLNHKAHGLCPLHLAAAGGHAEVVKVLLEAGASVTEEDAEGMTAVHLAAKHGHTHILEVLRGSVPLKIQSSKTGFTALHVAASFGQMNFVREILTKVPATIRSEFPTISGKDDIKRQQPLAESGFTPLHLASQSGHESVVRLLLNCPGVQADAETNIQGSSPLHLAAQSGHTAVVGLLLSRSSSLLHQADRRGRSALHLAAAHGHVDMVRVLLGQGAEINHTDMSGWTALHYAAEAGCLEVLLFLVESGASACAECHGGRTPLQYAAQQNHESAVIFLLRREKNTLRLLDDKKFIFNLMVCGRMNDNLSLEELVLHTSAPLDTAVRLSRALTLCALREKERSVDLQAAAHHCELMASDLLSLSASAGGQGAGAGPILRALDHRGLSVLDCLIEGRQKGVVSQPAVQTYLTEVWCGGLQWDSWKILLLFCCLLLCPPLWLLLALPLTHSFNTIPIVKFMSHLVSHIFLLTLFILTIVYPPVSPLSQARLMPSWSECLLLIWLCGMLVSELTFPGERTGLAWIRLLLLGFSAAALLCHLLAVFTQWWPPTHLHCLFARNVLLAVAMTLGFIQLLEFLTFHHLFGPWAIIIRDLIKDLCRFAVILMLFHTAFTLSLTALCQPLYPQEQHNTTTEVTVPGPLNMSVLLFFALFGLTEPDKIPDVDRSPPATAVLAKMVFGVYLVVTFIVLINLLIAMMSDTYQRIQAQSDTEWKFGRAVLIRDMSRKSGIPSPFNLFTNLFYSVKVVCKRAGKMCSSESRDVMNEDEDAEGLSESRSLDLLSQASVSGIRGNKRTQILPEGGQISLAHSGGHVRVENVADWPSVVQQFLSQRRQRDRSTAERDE

In general, AC50 refers to the concentration giving half of the maximal activity seen. As for `CNC(=O)NC(=O)C(C)OC(=O)c1oc2ccccc2c1CSc1ccc(Cl)cc1` (stereo not drawn), the “Absolute IC50 (XBP1)” value on X-box-binding protein 1 amounted to 10 µM. Further, in experiment [1], the AC50 was 12.3 µM (active).

Broadly, the CC50 is the concentration at which the toxic effect on the cells reaches its halfway point. On to `Cc1ccnn1CC(=O)N/N=C/c1ccc([N+](=O)[O-])s1`, for which the CC50 in experiment [2] is 36 µM (active).

In general, Ki refers to a measure of affinity in units of concentration, obtained from inhibition or displacement. By EC50 is commonly meant the concentration that produces a half-maximal response. On to `Cc1ccc(C)c(C(=O)C2=C(O)C(=O)N(CCCn3ccnc3)C2c2ccncc2)c1` (stereo not drawn), for which the Ki at fMet-Leu-Phe receptor is > 66.7 µM (inactive). Moreover, the EC50 in [3] is > 50 µM (not active).

For the compound `Cc1cc(C(C)(C)C)oc1C(=O)N(CC(=O)NC1CCCC1)c1c(C)cccc1C`, the concentration for a half-maximal effect (EC50) was > 195 µM (not active) in [4], > 29.9 µM (not active) at Ion channel NompC and 2.54 µM (active) on Mucolipin-3.

In general, IC50 refers to the concentration at which inhibition is half-maximal. As for `COC(=O)C1=C(c2ccc(F)cc2F)C[C@@H]2CC[C@H]1N2C(=O)N1CCC(C)CC1`, in experiment [5], the CC50 is 34.2 µM (active). Moreover, the 50% inhibitory concentration (IC50) in the experiment “cells” is 41.2 µM (active).

As for `CO/C(O)=C1\C(C)=NC2=C(C(=O)CC(c3cccs3)C2)C1c1ccsc1` (stereo not drawn), in [6], the IC50 is on record as > 69.5 µM (not active).

For the compound `COC(=O)c1ccc(NC2c3ncccc3C(=O)N2Cc2cccs2)cc1` (stereo not drawn), the IC50 in “cells” was 5.98 µM (active).

For the compound `COCc1c(C(=O)OC)nnn1-c1ccccc1`, the EC50 in [7], in experiment [8] and in experiment [9] was > 79.4 µM (not active) each time.

For the compound `COc1ccc(CC(=O)Nc2ccc(-c3nnc(-c4ccc(C)cc4)o3)cc2)cc1`, the Ki at fMet-Leu-Phe receptor was > 66.7 µM (inactive). Also, the IC50 in experiment [10] is 14.4 µM (active); in experiment [11], > 100 µM (not active); in experiment [12], > 50 µM (inactive).

Turning to `CNS(=O)(=O)c1ccc(OC)c(-c2nnc3c4ccccc4c(C)nn23)c1`, the IC50 in the experiment “cells” was 26.5 µM (active).

As to `O=C(CSc1nnc2c(n1)[nH]c1ccc(F)cc12)OCc1ccccc1`, in experiment [3], the EC50 is > 50 µM (not active). For the same compound, the AC50 on Cytochrome P450 2C9 is 0.0708 µM (inconclusive); on Cytochrome P450 3A4 it was 8.91 µM (inconclusive).

`CCOc1cc(S(=O)(=O)N2CCCCCC2)ccc1F`: the EC50 at Ion channel NompC and on Mucolipin-3 was > 29.9 µM (not active) each time.

With `O=S(=O)(Nc1ccccc1N1CCCCC1)c1ccc(F)cc1`, the figures for the EC50 at Ion channel NompC and at Mucolipin-3 were > 29.9 µM (not active) and 3.27 µM (active), respectively.

Regarding `CCN(CC)CCOC(=O)c1ccc(N/C=C(/C#N)c2nc(-c3cccc(OC)c3)cs2)cc1`, on X-box-binding protein 1, the “Absolute IC50 (XBP1)” value stood at 10 µM.

As to `Cc1ccc(S(=O)(=O)Nc2cc(C(=O)O)ccc2N2CCCCC2)cc1`, the EC50 in experiment [3] is reported as > 50 µM (not active).

For `Cc1c(NC(=O)c2cc3nc(-c4ccccc4)cc(C)n3n2)c(=O)n(-c2ccccc2)n1C`, on Bcl-2-like protein 10, the IC50 is 81.2 µM (inactive).

Regarding `O=C(Nc1cccnc1)c1ccc(S(=O)(=O)N2CCCCCC2)cc1`, the IC50 at Bcl-2-like protein 10 is > 100 µM (inactive).

For the compound `CCOC(=O)c1cnc(SC)nc1Sc1ccc(Cl)cc1Cl`, in the experiment with HeLa, the AC50 was 261 µM (active).

For the compound `CCN1C(=O)[C@@H]2[C@@H](c3ccc(-c4ccc(Cl)c(Cl)c4)c(OC)c3)N3CCC[C@@]3(C(=O)OC)[C@@H]2C1=O`, in experiment [2], the CC50 is 30.4 µM (active).

(Values after ChEMBL document CHEMBL1201862, “PubChem BioAssay data set” (2004).)
